For one compound, IC50 and inhibition results are on record in paper PMC10507113, “Function and phylogeny support the independent evolution of an ASIC-like Deg/ENaC channel in the Placozoa” (Communications Biology, 2023).

In general, IC50 refers to the midpoint of a concentration-inhibition curve. A low value points to greater potency.

One assay addresses T1, TadNaC2 (Trichoplax adhaerens, UniProt A0A5J6BSS6).
T1 construct: gene ASIC2; full-length cDNA cloned from whole-animal RNA, untagged in pIRES2-EGFP (pTadNaC2-IR-EGFP), CHO-K1 cells; homotrimer modelled; residues F70, T72, D75, E77, H80, E104, E105, H109, W165, F188, L198, R201, K203, S228, P229, W276, L332, S336, D413
T1 sequence (A0A5J6BSS6 1-548): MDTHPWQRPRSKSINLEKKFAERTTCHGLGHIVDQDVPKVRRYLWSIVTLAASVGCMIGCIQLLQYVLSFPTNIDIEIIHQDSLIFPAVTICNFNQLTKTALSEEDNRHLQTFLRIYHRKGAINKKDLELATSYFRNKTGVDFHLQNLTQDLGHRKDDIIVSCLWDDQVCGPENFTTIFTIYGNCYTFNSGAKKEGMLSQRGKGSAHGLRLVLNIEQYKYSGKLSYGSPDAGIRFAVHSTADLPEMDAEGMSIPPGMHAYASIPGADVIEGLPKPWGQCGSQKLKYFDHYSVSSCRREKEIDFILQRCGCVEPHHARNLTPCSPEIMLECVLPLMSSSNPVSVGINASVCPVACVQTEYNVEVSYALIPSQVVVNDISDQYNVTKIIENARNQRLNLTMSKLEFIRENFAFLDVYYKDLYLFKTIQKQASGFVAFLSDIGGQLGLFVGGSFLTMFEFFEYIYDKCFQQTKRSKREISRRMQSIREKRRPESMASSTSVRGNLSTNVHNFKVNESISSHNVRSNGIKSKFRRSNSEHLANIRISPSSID
Briefly: whole-cell patch clamp, CHO-K1, amiloride dose-response of peak inward current. It counts as cell-based. Background: In patch-clamp work, channel activity is measured electrically.

A further assay has as its target T2, mouse ASIC1a (mASIC1a) (Mus musculus, UniProt Q6NXK8).
T2 construct: gene Asic1; synthetic full-length subunit, untagged in pIRES2-EGFP (pmASIC1-IR-EGFP), CHO-K1 cells; homotrimer
T2 sequence (Q6NXK8 1-526): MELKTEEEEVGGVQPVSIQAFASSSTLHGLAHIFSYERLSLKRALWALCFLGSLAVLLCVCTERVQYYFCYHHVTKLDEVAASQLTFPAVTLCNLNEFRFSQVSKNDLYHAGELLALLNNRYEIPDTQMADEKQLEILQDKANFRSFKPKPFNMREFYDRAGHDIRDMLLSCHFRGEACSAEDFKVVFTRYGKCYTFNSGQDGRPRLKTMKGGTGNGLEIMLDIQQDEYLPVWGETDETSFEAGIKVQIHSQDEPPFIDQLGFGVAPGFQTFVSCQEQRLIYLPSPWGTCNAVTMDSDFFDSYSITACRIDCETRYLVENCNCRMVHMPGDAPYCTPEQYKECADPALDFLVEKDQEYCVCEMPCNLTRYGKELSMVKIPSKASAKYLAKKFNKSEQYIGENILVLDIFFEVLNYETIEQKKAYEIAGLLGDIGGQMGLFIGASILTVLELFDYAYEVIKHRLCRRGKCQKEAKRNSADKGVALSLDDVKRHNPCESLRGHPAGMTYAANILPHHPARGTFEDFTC
Briefly: whole-cell patch clamp, CHO-K1, single-dose block of peak inward current. The format is cell-based. The settings on record: read-out: % block at 3 mM.

Molecules are shown by their SMILES.

For the compound `N=C(N)NC(=O)c1nc(Cl)c(N)nc1N` [amiloride], on TadNaC2, the 50% inhibitory concentration (IC50) was 52 ± 29.6 µM. Besides, at mouse ASIC1a (mASIC1a), the inhibition at 3000 µM came out at 73 ± 4.1%.
